Laboratory results: PubChem BioAssay AID256 (DTP/NCI, 2004)
Values joined by “and” are separate entries in the source; they are usually repeats but may differ in a detail not shown here. Equal values may be shown once. Inconclusive results and toxic doses are left out.

System: CD2F1 mice, L1210 leukemia ip, survival T/C
Assay: NCI In Vivo Anticancer Drug Screen. Data for tumor model L1210 Leukemia (intraperitoneal) in CD2F1 (CDF1) mice
Details: higher = longer survival
How it was run: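 Antitumor effect is scored in animals hosting a serially transplanted tumor. Values compare compound-dosed animals against vehicle-only controls as a simple quotient.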

[1] = endpoint: mean survival time, dose: 100.0 mg/kg/injection, schedule: Q01DX009 (ip), vehicle: saline
[2] = endpoint: mean survival time, dose: 200.0 mg/kg/injection, schedule: Q01DX009 (ip), vehicle: saline
[3] = endpoint: mean survival time, dose: 100.0 mg/kg/injection, schedule: Q01DX009 (ip), vehicle: saline with Tween-80
[4] = endpoint: mean survival time, dose: 200.0 mg/kg/injection, schedule: Q01DX009 (ip), vehicle: saline with Tween-80
[5] = endpoint: mean survival time, dose: 400.0 mg/kg/injection, schedule: Q01DX009 (ip), vehicle: saline with Tween-80
[6] = endpoint: mean survival time, dose: 100.0 mg/kg/injection, schedule: Q04DX003 (ip), vehicle: saline with Tween-80
[7] = endpoint: mean survival time, dose: 200.0 mg/kg/injection, schedule: Q04DX003 (ip), vehicle: saline with Tween-80
[8] = endpoint: mean survival time, dose: 400.0 mg/kg/injection, schedule: Q04DX003 (ip), vehicle: saline with Tween-80
[9] = endpoint: mean survival time, dose: 25.0 mg/kg/injection, schedule: Q01DX009 (ip), vehicle: saline
[10] = endpoint: mean survival time, dose: 50.0 mg/kg/injection, schedule: Q01DX009 (ip), vehicle: saline
[11] = endpoint: mean survival time, dose: 50.0 mg/kg/injection, schedule: Q01DX009 (ip), vehicle: saline with Tween-80
[12] = endpoint: mean survival time, dose: 100.0 mg/kg/injection, schedule: Q04DX002 (ip), vehicle: saline with Tween-80
[13] = endpoint: mean survival time, dose: 200.0 mg/kg/injection, schedule: Q04DX002 (ip), vehicle: saline with Tween-80
[14] = endpoint: mean survival time, dose: 400.0 mg/kg/injection, schedule: Q04DX002 (ip), vehicle: saline with Tween-80

With `Nc1n[nH]c2cc(=O)[nH]c(O)c12` the T/C (endpoint: mean survival time, dose: 75.0 mg/kg/injection, schedule: Q01DX009 (ip), vehicle: saline) was 97 % of control, the T/C (endpoint: mean survival time, dose: 75.0 mg/kg/injection, schedule: Q04DX003 (ip), vehicle: saline) was 106 % of control and the T/C (endpoint: mean survival time, dose: 150.0 mg/kg/injection, schedule: Q01DX009 (ip), vehicle: saline) was 103 % of control. For the same molecule, the T/C (endpoint: mean survival time, dose: 150.0 mg/kg/injection, schedule: Q04DX003 (ip), vehicle: saline) was 102 % of control, the T/C (endpoint: mean survival time, dose: 300.0 mg/kg/injection, schedule: Q01DX009 (ip), vehicle: saline) was 111 % of control and the T/C (endpoint: mean survival time, dose: 300.0 mg/kg/injection, schedule: Q04DX003 (ip), vehicle: saline) was 106 % of control.
`OC1OCCOC1O` (stereo not drawn) was tested, and the T/C [1] was 114 % of control, the T/C (endpoint: mean survival time, dose: 100.0 mg/kg/injection, schedule: Q04DX003 (ip), vehicle: saline) was 99 % of control and the T/C [2] was 114 % of control. For the same molecule, the T/C (endpoint: mean survival time, dose: 200.0 mg/kg/injection, schedule: Q04DX003 (ip), vehicle: saline) was 99 % of control, the T/C (endpoint: mean survival time, dose: 400.0 mg/kg/injection, schedule: Q01DX009 (ip), vehicle: saline) was 121 % of control and the T/C (endpoint: mean survival time, dose: 400.0 mg/kg/injection, schedule: Q04DX003 (ip), vehicle: saline) was 115 % of control.
For `COC(=O)C1=C(C)NC(=O)NC1c1ccccc1` (stereo not drawn), the T/C [3] was 95 % of control, the T/C [4] was 97 % of control and the T/C [5] was 97 % of control.
`ClC1=C(Cl)C2(Cl)C3C4CCC(C4)C3C1(Cl)C2(Cl)Cl` (stereo not drawn) was tested, and the T/C [3] was 95 % of control and 107 % of control, the T/C [4] was 93 % of control and 111 % of control and the T/C [5] was 96 % of control and 105 % of control.
With `O=C(c1ccccc1)C1(c2ccccc2)CC1` the T/C [6] was 108 % of control, the T/C [7] was 101 % of control and the T/C [8] was 101 % of control.
With `NC(CSC(c1ccccc1)(c1ccccc1)c1ccc(F)cc1)C(=O)O` (stereo not drawn) the T/C [9] was 181 % of control and the T/C [10] was 192 % of control.
For `CCOC(=O)c1cc(Cl)cc(Cl)c1N=NN(C)C`, the T/C [9] was 93 % of control, the T/C [10] was 93 % of control and the T/C [1] was 100 % of control. For the same molecule, the T/C [2] was 97 % of control.
For `CC(=O)N(/C=C\C=C\c1sc2ccccc2[n+]1C)c1ccccc1`, the T/C (endpoint: mean survival time, dose: 12.5 mg/kg/injection, schedule: Q01DX009 (ip), vehicle: other) was 108 % of control and the T/C (endpoint: mean survival time, dose: 25.0 mg/kg/injection, schedule: Q01DX009 (ip), vehicle: other) was 115 % of control.
In the case of `COC12C(COC(C)=O)C3=C(C(=O)C(C)=C(N4CCCCC4)C3=O)N1CC1NC12` (stereo not drawn), the T/C (endpoint: mean survival time, dose: 0.75 mg/kg/injection, schedule: Q01DX001 (ip), vehicle: distilled water + Tween-80) is reported as 97 % of control, the T/C (endpoint: mean survival time, dose: 1.5 mg/kg/injection, schedule: Q01DX001 (ip), vehicle: distilled water + Tween-80) is reported as 103 % of control and the T/C (endpoint: mean survival time, dose: 3.0 mg/kg/injection, schedule: Q01DX001 (ip), vehicle: distilled water + Tween-80) is reported as 105 % of control and 112 % of control. The T/C (endpoint: mean survival time, dose: 6.0 mg/kg/injection, schedule: Q01DX001 (ip), vehicle: distilled water + Tween-80) was 122 % of control and 105 % of control and the T/C (endpoint: mean survival time, dose: 12.0 mg/kg/injection, schedule: Q01DX001 (ip), vehicle: distilled water + Tween-80) was 112 % of control.
`O=C(Nc1nncs1)c1cccs1` was tested, and the T/C (endpoint: mean survival time, dose: 12.5 mg/kg/injection, schedule: Q01DX009 (ip), vehicle: saline with Tween-80) was 95 % of control and 104 % of control, the T/C (endpoint: mean survival time, dose: 25.0 mg/kg/injection, schedule: Q01DX009 (ip), vehicle: saline with Tween-80) was 93 % of control and 103 % of control and the T/C [11] was 93 % of control and 94 % of control. For the same molecule, the T/C [3] was 92 % of control and 100 % of control, the T/C [4] was 118 % of control and the T/C [5] was 172 % of control.
`CNc1ncnc2[nH]cc([N+](=O)[O-])c12` was tested, and the T/C (endpoint: mean survival time, dose: 75.0 mg/kg/injection, schedule: Q01DX001 (ip), vehicle: saline) was 96 % of control, the T/C (endpoint: mean survival time, dose: 150.0 mg/kg/injection, schedule: Q01DX001 (ip), vehicle: saline) was 106 % of control and the T/C (endpoint: mean survival time, dose: 300.0 mg/kg/injection, schedule: Q01DX001 (ip), vehicle: saline) was 106 % of control.
For `Cc1ccc(NC(=O)Nc2ccccc2C(N)=O)cc1`, the T/C (endpoint: mean survival time, dose: 100.0 mg/kg/injection, schedule: Q01DX009 (ip), vehicle: saline sonified) was 97 % of control, the T/C (endpoint: mean survival time, dose: 200.0 mg/kg/injection, schedule: Q01DX009 (ip), vehicle: saline sonified) was 98 % of control and the T/C (endpoint: mean survival time, dose: 400.0 mg/kg/injection, schedule: Q01DX009 (ip), vehicle: saline sonified) was 100 % of control.
With `O=C(Nc1cccc(O)c1)OCCCCl` the T/C [6] was 98 % of control, the T/C [7] was 98 % of control and the T/C [8] was 96 % of control.
For `CCSC(C(OC(C)=O)C(OC(C)=O)C(COC(C)=O)OC(C)=O)n1cc(F)c(=O)[nH]c1=O` (stereo not drawn), the T/C (endpoint: mean survival time, dose: 12.5 mg/kg/injection, schedule: Q01DX005 (ip), vehicle: other) was 100 % of control and 104 % of control, the T/C (endpoint: mean survival time, dose: 25.0 mg/kg/injection, schedule: Q01DX005 (ip), vehicle: other) was 98 % of control and 105 % of control and the T/C (endpoint: mean survival time, dose: 50.0 mg/kg/injection, schedule: Q01DX005 (ip), vehicle: other) was 88 % of control and 98 % of control. For the same molecule, the T/C (endpoint: mean survival time, dose: 100.0 mg/kg/injection, schedule: Q01DX005 (ip), vehicle: other) was 98 % of control and 105 % of control and the T/C (endpoint: mean survival time, dose: 200.0 mg/kg/injection, schedule: Q01DX005 (ip), vehicle: other) was 94 % of control and 107 % of control.
With `Cc1c(Cl)c(Cl)c(Cl)c(Cl)c1Cl` the T/C [3] was 93 % of control, the T/C [4] was 93 % of control and the T/C [5] was 92 % of control.
For `O=C(C(=Nc1ccccc1)c1ccccc1)c1ccccc1`, the T/C [11] was 100 % of control, the T/C [3] was 97 % of control and the T/C [4] was 97 % of control.
With `O=C(O)/C=C/C(=O)Nc1ccc(Cl)c(Cl)c1` the T/C (endpoint: mean survival time, dose: 6.25 mg/kg/injection, schedule: Q01DX009 (ip), vehicle: Klucel (hydroxypropylcellulose) (HPC)) was 93 % of control, the T/C (endpoint: mean survival time, dose: 12.5 mg/kg/injection, schedule: Q01DX009 (ip), vehicle: Klucel (hydroxypropylcellulose) (HPC)) was 96 % of control and 98 % of control and the T/C (endpoint: mean survival time, dose: 25.0 mg/kg/injection, schedule: Q01DX009 (ip), vehicle: Klucel (hydroxypropylcellulose) (HPC)) was 113 % of control and 104 % of control. For the same molecule, the T/C (endpoint: mean survival time, dose: 50.0 mg/kg/injection, schedule: Q01DX009 (ip), vehicle: Klucel (hydroxypropylcellulose) (HPC)) was 114 % of control and 104 % of control and 110 % of control, the T/C (endpoint: mean survival time, dose: 100.0 mg/kg/injection, schedule: Q01DX009 (ip), vehicle: Klucel (hydroxypropylcellulose) (HPC)) was 104 % of control and 107 % of control and 109 % of control and the T/C (endpoint: mean survival time, dose: 200.0 mg/kg/injection, schedule: Q01DX009 (ip), vehicle: Klucel (hydroxypropylcellulose) (HPC)) was 98 % of control.
For `COc1cc(C(=O)NCCCCCC(=O)O)cc(OC)c1OC`, the T/C [12] was 91 % of control, the T/C [13] was 95 % of control and the T/C [14] was 88 % of control.
`CN(C=O)C(C(=O)Nc1cccc2c(OC(=O)C(N(C)C=O)(N(C)C=O)N(C)C=O)c(N=Nc3ccc(S(=O)(=O)Nc4nccs4)cc3)cc(N=Nc3ccc(S(=O)(=O)Nc4nccs4)cc3)c12)(N(C)C=O)N(C)C=O` (tested in a mixture with another compound) was tested, and the T/C (endpoint: median survival time, dose: 12.0 mg/kg/injection, schedule: Q01DX009 (ip), vehicle: saline with Tween-80) was 95 % of control, the T/C (endpoint: median survival time, dose: 25.0 mg/kg/injection, schedule: Q01DX009 (ip), vehicle: saline with Tween-80) was 106 % of control and the T/C (endpoint: median survival time, dose: 50.0 mg/kg/injection, schedule: Q01DX009 (ip), vehicle: saline with Tween-80) was 95 % of control. The T/C (endpoint: median survival time, dose: 100.0 mg/kg/injection, schedule: Q01DX009 (ip), vehicle: saline with Tween-80) was 94 % of control, the T/C (endpoint: median survival time, dose: 200.0 mg/kg/injection, schedule: Q01DX009 (ip), vehicle: saline with Tween-80) was 97 % of control and the T/C (endpoint: median survival time, dose: 400.0 mg/kg/injection, schedule: Q01DX009 (ip), vehicle: saline with Tween-80) was 106 % of control.
In the case of `Nc1ccc(O)c2ccccc12`, the T/C (endpoint: mean survival time, dose: 1.5 mg/kg/injection, schedule: Q04DX003 (ip), vehicle: other) is reported as 111 % of control and the T/C (endpoint: mean survival time, dose: 3.0 mg/kg/injection, schedule: Q04DX003 (ip), vehicle: other) is reported as 102 % of control.
For `Cc1cccc(Cl)c1NC1=NCCO1`, the T/C (endpoint: mean survival time, dose: 6.25 mg/kg/injection, schedule: Q04DX003 (ip), vehicle: saline with Tween-80) was 100 % of control, the T/C (endpoint: mean survival time, dose: 12.5 mg/kg/injection, schedule: Q04DX003 (ip), vehicle: saline with Tween-80) was 100 % of control and the T/C (endpoint: mean survival time, dose: 25.0 mg/kg/injection, schedule: Q04DX003 (ip), vehicle: saline with Tween-80) was 111 % of control.
`COc1ccc2c(c1)CCC1C2=CC2=NNC(=O)C2C1c1ccccc1` (stereo not drawn) was tested, and the T/C [12] was 92 % of control, the T/C [13] was 92 % of control and the T/C [14] was 88 % of control.
In the case of `OCC1OC(n2ncc3c2ncn2ccnc32)C(O)C1O` (stereo not drawn), the T/C (endpoint: mean survival time, dose: 12.5 mg/kg/injection, schedule: Q01DX005 (ip), vehicle: water) is reported as 101 % of control, the T/C (endpoint: mean survival time, dose: 25.0 mg/kg/injection, schedule: Q01DX005 (ip), vehicle: water) is reported as 101 % of control and the T/C (endpoint: mean survival time, dose: 50.0 mg/kg/injection, schedule: Q01DX005 (ip), vehicle: water) is reported as 97 % of control. The T/C (endpoint: mean survival time, dose: 100.0 mg/kg/injection, schedule: Q01DX005 (ip), vehicle: water) was 97 % of control and the T/C (endpoint: mean survival time, dose: 200.0 mg/kg/injection, schedule: Q01DX005 (ip), vehicle: water) was 109 % of control.
